Source: US20200071316A1, “ACTIVATORS OF THE RETINOIC ACID INDUCIBLE GENE "RIG-I" PATHWAY AND METHODS OF USE THEREOF” (Kineta Immuno-Oncology LLC, priority 2018, published 2020)
Marks after values point to notes of the source that are not given here.

What was measured:
[1] = test system: IRF3 signaling pathway (IRF-inducible ISG54 promotor) in THP1-Lucia ISG cells; test: THP1-Lucia ISG reporter assay: induction of IRF3-dependent luciferase activity; format: cell-based; conditions: Homo sapiens, PMA-differentiated cells, 18 h after stimulation, read-out: THP1 ISG: fold increase of IRF3-dependent luciferase activity over background; for fold induction at 10 µM: 10 μM compound
Protocol: The compounds were evaluated in the THP1-Lucia™ ISG (interferon stimulated genes) reporter assay to determine if the compounds activate the IRF3 signaling pathway. The THP1-Lucia™ cells (InvivoGen) express the secreted luciferase (Lucia) reporter gene under the control of an IRF-inducible promotor. The reporter cell line was developed from human monocytic leukemia THP-1 cells.
(§1) The promotor was comprised of five IFN-stimulated response elements (ISRE) fused to an ISG54 minimal promotor which is unresponsive to NF-kB or AP-1 pathways. […] The IRF3-deficient THP1-Lucia™ ISG IRF3 −/− reporter cell line was generated by CRISPR technology from the parent THP1-Lucia™ ISG reporter cell line.
(§2) 5 THP1-Lucia™ ISG cells and IRF3-deficient THP1-Lucia™ ISG IRF3 −/− cells were differentiated with PMA (100 ng/ml) and stimulated with compounds at the indicated concentrations (5 to 20 μM), positive control, or not treated (background). Luciferase secretion was quantified using the QUANTI-Luc luciferase assay system (InvivoGen) 18 h after stimulation. Data are shown as fold increase luciferase activity over background in Table 7 and represent the IRF3-dependent ISG54 promotor activity by the THP1-Lucia™ ISG cells in response to compounds. […] The fold increase of compounds (10 μM, *20 μM, **5 μM) induced IRF3 dependent luciferase activity is indicated as follows: “−” indicates less than 2.4 fold increase; “+” indicates a 2.4-4.9 fold increase; “++” indicates a 5-9.9 fold increase; “+++” indicates a 10-19 fold increase; “++++” indicates a 20-39 fold increase; “+++++” indicates greater than or equal to 40 fold increase.

[2] = test system: THP1-Lucia ISG IRF3 −/− cells; test: IRF3-deficient THP1-Lucia ISG IRF3 −/− reporter assay (counter-screen); format: cell-based; conditions: Homo sapiens, 18 h after stimulation, read-out: THP1 ISG IRF3 −/−: fold increase of luciferase activity over background; for fold induction at 10 µM: 10 μM compound
Protocol: as §1, §2

[3] = test system: CXCL10 secretion by CT26 cells; test: RIG-I dependent CXCL10 secretion by CT26 colon carcinoma cells (ELISA); format: cell-based, murine; conditions: 24 h
Protocol: (§3) The CT26 murine colon carcinoma cell line (ATCC) was used to evaluate the induction of CXCL10 secretion. CXCL10 is an important chemokine in tumor immune biology that recruits tumor-specific T cells to the tumor. To confirm that compound-mediated CXCL10 production was RIG-I specific, RIG-I deficient CT2-RIG-1−/− cells were generated by Kineta using CRISPR technology.
(§4) CT26 cells were seeded at a density of 1×10^4 cells per well on a 96-well tissue culture plate in 100 μL of cell culture and cells were incubated at 37° C. and 5% CO2 for 24 hr. Next, CT26 cells were treated with compounds at the indicated concentrations. CXCL10 was quantified by ELISA from supernatants taken 24 h after compound stimulation by use of the CXCL10 DuoSet ELISA kit (Cat # DY466, R&D, Minneapolis, Minn., USA) according to the manufacturer's instructions.
(§5) CXCL10 secretion by CT26 cells in response to compounds (in an amount of 5 to 20 μM) of the present disclosure is shown in Table 8. The compound-induced CXCL10 production was RIG-I dependent, since none of the compounds mediated CXCL10 secretion in RIG-I deficient CT26 RIG-1−/− cells. The compounds (10 μM, *20 μM, **5 μM) are indicated in the table as follows: “−” indicates less than 100 pg/mL; “+” indicates 100-199 pg/mL; “++” indicates 200-399 pg/mL; “+++” indicates 400-799 pg/mL; “++++” indicates 800 to 1599 pg/mL; “+++++” indicates greater than or equal to 1600 pg/ml.

[4] = test system: RIG-I deficient CT26 RIG-1−/− cells; test: CXCL10 secretion in RIG-I deficient CT26 RIG-1−/− cells (ELISA); format: cell-based, murine; conditions: 24 h
Protocol: as §3, §4, §5

Structure (SMILES)	fold induction at 10 µM [1]	fold induction at 10 µM [2]	CXCL10 secretion by CT26 cells ([3]; 10 μM compound)	CXCL10 secretion by CT26 RIG-I −/− cells ([4]; 10 μM compound)	fold induction at 20 µM ([1]; 20 μM compound (*))	fold induction at 20 µM ([2]; 20 μM compound (*))	CXCL10 secretion by CT26 cells ([3]; 5 μM compound (**))	CXCL10 secretion by CT26 RIG-I −/− cells ([4]; 5 μM compound (**))
O=C(Nc1cc2ccc(S(=O)(=O)N3CCC3)cc2s1)c1cc2ccccc2cc1OCCCCN1CCOCC1 [Example 86, N-(6-(azetidin-1-ylsulfonyl)benzo[b]thiophen-2-yl)-3-(4-morpholinobutoxy)-2-naphthamide]	20 to 39	< 2.4	–	–	–	–	–	–
O=C(Nc1nc2ccc(SC(F)(F)F)cc2s1)c1ccc2ccccc2c1 [Example 9, N-{6-[(trifluoromethyl)sulfanyl]-1,3-benzothiazol-2-yl}naphthalene-2-carboxamide]	5 to 9.9	< 2.4	+++ (“+++” indicates 400-799 pg/mL)	− (“−” indicates less than 100 pg/mL)	–	–	–	–
N#Cc1ccc2nc(NC(=O)c3cc4ccccc4cc3OCCN3CCOCC3)sc2c1 [Example 24, N-(6-cyano-1,3-benzothiazol-2-yl)-3-[2-(morpholin-4-yl)ethoxy]naphthalene-2-carboxamide]	5 to 9.9	< 2.4	− (“−” indicates less than 100 pg/mL)	− (“−” indicates less than 100 pg/mL)	–	–	–	–
O=C(Cc1ccc2nc(NC(=O)c3ccc4ccccc4c3)sc2c1)NC1CC1 [Example 12, N-{6-[(cyclopropyl-carbamoyl)methyl]-1,3-benzothiazol-2-yl}naphthalene-2-carboxamide]	–	–	+++ (“+++” indicates 400-799 pg/mL)	− (“−” indicates less than 100 pg/mL)	2.4 to 4.9	< 2.4	–	–
O=C(Nc1nc2ccc(SC(F)F)cc2s1)c1cc2ccccc2cc1OCCCCN1CCOCC1 [Example 49, N-{6-[(difluoromethyl)sulfanyl]-1,3-benzothiazol-2-yl}-3-[4-(morpholin-4-yl)butoxy]naphthalene-2-carboxamide]	20 to 39	< 2.4	+++ (“+++” indicates 400-799 pg/mL)	− (“−” indicates less than 100 pg/mL)	–	–	–	–
O=C(Nc1nc2ccc(S(=O)(=O)N3CC4(COC4)C3)cc2s1)c1cc2ccccc2cc1OCCCCN1CCOCC1 [Example 55, 3-[4-(morpholin-4-yl)butoxy]-N-(6-{2-oxa-6-azaspiro[3.3]heptane-6-sulfonyl}-1,3-benzothiazol-2-yl)naphthalene-2-carboxamide]	2.4 to 4.9	< 2.4	++ (“++” indicates 200-399 pg/mL)	− (“−” indicates less than 100 pg/mL)	–	–	–	–
O=C(Nc1cc2ccc(S(=O)(=O)N3CCCC3)cc2s1)c1cc2c(cc1OCCCCN1CCOCC1)OCO2 [Example 73, 6-[4-(morpholin-4-yl)butoxy]-N-[6-(pyrrolidine-1-sulfonyl)-1-benzothiophen-2-yl]-2H-1,3-benzodioxole-5-carboxamide]	20 to 39	< 2.4	++++ (“++++” indicates 800 to 1599 pg/mL)	− (“−” indicates less than 100 pg/mL)	–	–	–	–
O=C(Nc1nc2ccc(S(=O)(=O)N3CCCC3)cc2s1)c1cc2ccsc2cc1OCCCCN1CCOCC1 [Example 42, 6-[4-(morpholin-4-yl)butoxy]-N-[6-(pyrrolidine-1-sulfonyl)-1,3-benzothiazol-2-yl]-1-benzothiophene-5-carboxamide]	5 to 9.9	< 2.4	++++ (“++++” indicates 800 to 1599 pg/mL)	− (“−” indicates less than 100 pg/mL)	–	–	–	–
CS(=O)(=O)c1ccc2nc(NC(=O)c3ccc4ccccc4c3)sc2c1 [Example 1, N-(6-methanesulfonyl-1,3-benzothiazol-2-yl)naphthalene-2-carboxamide]	10 to 19	< 2.4	++++ (“++++” indicates 800 to 1599 pg/mL)	− (“−” indicates less than 100 pg/mL)	–	–	–	–
O=C(Nc1cc2ccc(S(=O)(=O)N3CCCC3)cc2s1)c1cc2ccccc2cc1OCCN1CCOCC1 [Example 74, 3-[2-(morpholin-4-yl)ethoxy]-N-[6-(pyrrolidine-1-sulfonyl)-1-benzothiophen-2-yl]naphthalene-2-carboxamide]	10 to 19	< 2.4	+++ (“+++” indicates 400-799 pg/mL)	− (“−” indicates less than 100 pg/mL)	–	–	–	–
O=C(Nc1cc2ccc(S(=O)(=O)N3CCCC3)cc2s1)c1ccc(-c2ccccc2)cc1OCCN1CCOCC1 [Example 71, 3-[2-(morpholin-4-yl)ethoxy]-N-[6-(pyrrolidine-1-sulfonyl)-1-benzothiophen-2-yl]-[1,1′-biphenyl]-4-carboxamide]	< 2.4	< 2.4	− (“−” indicates less than 100 pg/mL)	− (“−” indicates less than 100 pg/mL)	–	–	–	–
COCC1CN(CCOc2cc3ccccc3cc2C(=O)Nc2nc3ccc(S(=O)(=O)N4CCCC4)cc3s2)CCO1 (stereo not drawn) [Example 87, 3-{2-[2-(methoxymethyl)morpholin-4-yl]ethoxy}-N-[6-(pyrrolidine-1-sulfonyl)-1,3-benzothiazol-2-yl]naphthalene-2-carboxamide]	20 to 39	< 2.4	–	–	–	–	–	–
O=C(Nc1nc2ccc(S(=O)(=O)N3CCCC3)cc2s1)c1cc2ccccc2cc1OCCN1CC2CC(C1)O2 [Example 89, 3-(2-{6-oxa-3-azabicyclo[3.1.1]heptan-3-yl}ethoxy)-N-[6-(pyrrolidine-1-sulfonyl)-1,3-benzothiazol-2-yl]naphthalene-2-carboxamide]	10 to 19	< 2.4	–	–	–	–	–	–
O=C(Nc1nc2ccc(S(=O)(=O)N3CCCC3)cc2s1)c1cc2ccccc2cc1OCCN1CCC(F)(F)CC1 [Example 79, 3-[2-(4,4-difluoropiperidin-1-yl)ethoxy]-N-[6-(pyrrolidine-1-sulfonyl)-1,3-benzothiazol-2-yl]naphthalene-2-carboxamide]	–	–	–	–	–	–	+** (“+” indicates 100-199 pg/mL)	−** (“−” indicates less than 100 pg/mL)
O=C(Nc1nc2ccc(S(=O)(=O)N3CCCC3)cc2s1)c1cc2c(cc1OCCN1CCOCC1)CCC2 [Example 91, 6-[2-(morpholin-4-yl)ethoxy]-N-[6-(pyrrolidine-1-sulfonyl)-1,3-benzothiazol-2-yl]-2,3-dihydro-1H-indene-5-carboxamide]	10 to 19	< 2.4	–	–	–	–	–	–
O=C(Nc1nc2ccc(S(=O)(=O)N3CCCC3)cc2s1)c1cc2ccccc2cc1OCCN1C[C@H]2C[C@@H]1CO2 [Example 90]	20 to 39	< 2.4	–	–	–	–	–	–
O=C(Nc1nc2ccc(S(=O)(=O)N3CCCC3)cc2s1)c1cc2ccccc2cc1OCCN1CC2CCC1CO2 (stereo not drawn) [Example 88, 3-(2-{2-oxa-5-azabicyclo[2.2.2]octan-5-yl}ethoxy)-N-[6-(pyrrolidine-1-sulfonyl)-1,3-benzothiazol-2-yl]naphthalene-2-carboxamide]	20 to 39	< 2.4	–	–	–	–	–	–
